*1 amine or outer side, *2 acyl side, *3 side chain or, on linkers, in order; H or OH if unused. Where a SMILES comes first, the peptide text is derived from it. Side-chain parts run from the residue outwards. [ ]: non-standard residue; d: D form. The star is where a group is joined. C20 diacid = O=C(O)CCCCCCCCCCCCCCCCCCC(=O)*; αMePhe(2-F) = C[C@](N)(Cc1ccccc1F)C(=O)O; γGlu = O=C(O)[C@H](CCC(=O)[*:2])N[*:1]; αMeF = C[C@](N)(Cc1ccccc1)C(=O)O; 4Pal = N[C@@H](Cc1ccncc1)C(=O)O; AEEA = NCCOCCOCC(=O)O; Aib = CC(C)(N)C(=O)O Where only a bound is given, the exact number is not on record here.

The record followed here is patent US12723063B2, “GIPR-agonist compounds” (Eli Lilly and Company, priority 2019, dated 2026).

The target of one experiment is T1, human GLP-1R (Homo sapiens, UniProt P43220).
T1 construct: expressed in transfected cells; crude membranes
Put plainly: [125I]-GLP-1 binding, SPA with WGA beads, 0.1% bacitracin. As to conditions: geometric mean, read-out: hGLP1R Ki. The essentials: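 Binding buffer was 25 mM HEPES pH 7.4 with 2.5 mM CaCl2, 1 mM MgCl2, 0.1% (w/v) bacitracin, 0.003% Tween-20 and EDTA-free protease inhibitors. Four-parameter regression gave IC50, converted to Ki (geometric mean, SEM, n independent days).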

Experiment [1] addresses T2, human glucagon receptor (GcgR) (Homo sapiens, UniProt P47871).
T2 construct: expressed in transfected cells; host or cells: HEK293
Put plainly: cAMP functional assay (HTRF) in HEK293 cells in presence of 0.1% casein. It is filed as cell-based. Particulars: HEK293 cells expressing human GcgR, geometric mean, read-out: hGcgR cAMP Rel EC50 nM (SEM, n). (Time-resolved FRET reads energy transfer from a long-lived donor to a nearby acceptor.)

T2 sequence (P47871 26-477): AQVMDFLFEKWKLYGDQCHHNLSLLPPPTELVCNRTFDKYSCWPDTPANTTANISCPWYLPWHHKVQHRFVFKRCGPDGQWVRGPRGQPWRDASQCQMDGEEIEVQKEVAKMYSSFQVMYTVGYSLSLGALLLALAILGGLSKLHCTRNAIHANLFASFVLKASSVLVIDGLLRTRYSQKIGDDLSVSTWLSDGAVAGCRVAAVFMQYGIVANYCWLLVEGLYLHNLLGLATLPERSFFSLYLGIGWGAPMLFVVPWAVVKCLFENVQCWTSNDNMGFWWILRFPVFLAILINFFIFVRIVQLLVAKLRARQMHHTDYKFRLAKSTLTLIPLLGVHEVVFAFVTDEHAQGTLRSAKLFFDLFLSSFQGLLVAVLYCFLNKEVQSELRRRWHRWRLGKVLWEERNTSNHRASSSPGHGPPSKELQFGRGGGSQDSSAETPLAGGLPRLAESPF
T1 sequence (P43220 24-463): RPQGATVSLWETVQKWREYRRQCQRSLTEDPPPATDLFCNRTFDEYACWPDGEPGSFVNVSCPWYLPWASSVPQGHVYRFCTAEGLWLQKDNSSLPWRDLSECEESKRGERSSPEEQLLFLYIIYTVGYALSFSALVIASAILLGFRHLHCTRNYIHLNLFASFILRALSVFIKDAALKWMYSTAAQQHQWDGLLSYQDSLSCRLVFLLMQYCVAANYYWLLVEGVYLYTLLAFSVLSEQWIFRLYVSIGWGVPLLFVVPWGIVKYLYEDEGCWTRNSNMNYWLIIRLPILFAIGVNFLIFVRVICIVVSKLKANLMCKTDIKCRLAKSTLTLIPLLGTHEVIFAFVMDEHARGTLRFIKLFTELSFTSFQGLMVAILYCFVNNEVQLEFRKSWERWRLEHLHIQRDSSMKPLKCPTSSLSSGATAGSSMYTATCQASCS

For `CC[C@H](C)[C@H](NC(=O)[C@H](CO)NC(=O)[C@H](Cc1ccc(O)cc1)NC(=O)[C@H](CC(=O)O)NC(=O)[C@H](CO)NC(=O)[C@@H](NC(=O)[C@](C)(Cc1ccccc1F)NC(=O)[C@@H](NC(=O)CNC(=O)[C@H](CCC(=O)O)NC(=O)C(C)(C)NC(=O)[C@@H](N)Cc1ccc(O)cc1)[C@@H](C)O)[C@@H](C)CC)C(=O)N[C@@H](C)C(=O)N[C@@H](CC(C)C)C(=O)N[C@@H](CC(=O)O)C(=O)N[C@@H](CCCCN)C(=O)N[C@@H](CCCCNC(=O)COCCOCCNC(=O)COCCOCCNC(=O)CC[C@H](NC(=O)CCCCCCCCCCCCCCCCCCC(=O)O)C(=O)O)C(=O)N[C@@H](Cc1c[nH]cn1)C(=O)N[C@@H](CCC(N)=O)C(=O)NC(C)(C)C(=O)N[C@@H](CC(=O)O)C(=O)N[C@@H](Cc1ccccc1)C(=O)N[C@H](C(=O)N[C@@H](CCC(=O)O)C(=O)N[C@@H](Cc1ccncc1)C(=O)N[C@@H](CC(C)C)C(=O)N[C@@H](CC(C)C)C(=O)N[C@@H](CCC(=O)O)C(=O)N[C@H](C(=O)NCC(=O)N1CCC[C@H]1C(=O)N[C@@H](CO)C(=O)N[C@@H](CO)C(=O)NCC(=O)N[C@@H](C)C(=O)N1CCC[C@H]1C(=O)N1CCC[C@H]1C(=O)N1CCC[C@H]1C(=O)N[C@@H](CO)C(N)=O)[C@@H](C)O)C(C)C` [Example 38] (H-Y[Aib]EGT[αMePhe(2-F)]ISDYSIALDKK([AEEA-AEEA-γGlu-C20 diacid])HQ[Aib]DFVE[4Pal]LLETGPSSGAPPPS-NH2), the inhibitory constant (Ki) on human GLP-1R came to 0.776 µM. Moreover, in experiment [1], the EC50 is more than 5000 nM.
For the molecule `CC[C@H](C)[C@H](NC(=O)[C@H](CO)NC(=O)[C@H](Cc1ccc(O)cc1)NC(=O)[C@H](CC(=O)O)NC(=O)[C@H](CO)NC(=O)[C@@H](NC(=O)[C@](C)(Cc1ccccc1F)NC(=O)[C@@H](NC(=O)CNC(=O)[C@H](CCC(=O)O)NC(=O)C(C)(C)NC(=O)[C@@H](N)Cc1ccc(O)cc1)[C@@H](C)O)[C@@H](C)CC)C(=O)N[C@@H](C)C(=O)N[C@@H](CC(C)C)C(=O)N[C@@H](CC(=O)O)C(=O)N[C@@H](CCCCN)C(=O)N[C@@H](CCCCNC(=O)COCCOCCNC(=O)COCCOCCNC(=O)CC[C@H](NC(=O)CCCCCCCCCCCCCCCCCCC(=O)O)C(=O)O)C(=O)N[C@@H](Cc1c[nH]cn1)C(=O)N[C@@H](CCC(N)=O)C(=O)NC(C)(C)C(=O)N[C@@H](CC(=O)O)C(=O)N[C@@H](Cc1ccccc1)C(=O)N[C@H](C(=O)N[C@@H](CCC(=O)O)C(=O)N[C@@H](Cc1ccncc1)C(=O)N[C@@H](CC(C)C)C(=O)N[C@@H](CC(C)C)C(=O)N[C@@H](CCC(=O)O)C(=O)NCC(=O)NCC(=O)N1CCC[C@H]1C(=O)N[C@@H](CO)C(=O)N[C@@H](CO)C(=O)NCC(=O)N[C@@H](C)C(=O)N1CCC[C@H]1C(=O)N1CCC[C@H]1C(=O)N1CCC[C@H]1C(=O)N[C@@H](CO)C(N)=O)C(C)C` [Example 39] (H-Y[Aib]EGT[αMePhe(2-F)]ISDYSIALDKK([AEEA-AEEA-γGlu-C20 diacid])HQ[Aib]DFVE[4Pal]LLEGGPSSGAPPPS-NH2), the Ki at human GLP-1R amounted to 0.235 µM. Besides, the EC50 in experiment [1] was more than 5000 nM.
For `CC[C@H](C)[C@H](NC(=O)[C@H](CO)NC(=O)[C@H](Cc1ccc(O)cc1)NC(=O)[C@H](CC(=O)O)NC(=O)[C@H](CO)NC(=O)[C@@H](NC(=O)[C@](C)(Cc1ccccc1F)NC(=O)[C@@H](NC(=O)CNC(=O)[C@H](CCC(=O)O)NC(=O)C(C)(C)NC(=O)[C@@H](N)Cc1ccc(O)cc1)[C@@H](C)O)[C@@H](C)CC)C(=O)N[C@@H](C)C(=O)N[C@@H](CC(C)C)C(=O)N[C@@H](CC(=O)O)C(=O)N[C@@H](CCCCN)C(=O)N[C@@H](CCCCNC(=O)COCCOCCNC(=O)COCCOCCNC(=O)CC[C@H](NC(=O)CCCCCCCCCCCCCCCCCCC(=O)O)C(=O)O)C(=O)N[C@@H](Cc1c[nH]cn1)C(=O)N[C@@H](CCC(N)=O)C(=O)NC(C)(C)C(=O)N[C@@H](CC(=O)O)C(=O)N[C@@H](Cc1ccccc1)C(=O)N[C@H](C(=O)N[C@@H](CCC(=O)O)C(=O)N[C@@H](Cc1c[nH]c2ccccc12)C(=O)N[C@@H](CC(C)C)C(=O)N[C@@H](CC(C)C)C(=O)N[C@@H](CCC(=O)O)C(=O)N[C@H](C(=O)NCC(=O)N1CCC[C@H]1C(=O)N[C@@H](CO)C(=O)N[C@@H](CO)C(=O)NCC(=O)N[C@@H](C)C(=O)N1CCC[C@H]1C(=O)N1CCC[C@H]1C(=O)N1CCC[C@H]1C(=O)N[C@@H](CO)C(N)=O)[C@@H](C)O)C(C)C` [Example 40] (H-Y[Aib]EGT[αMePhe(2-F)]ISDYSIALDKK([AEEA-AEEA-γGlu-C20 diacid])HQ[Aib]DFVEWLLETGPSSGAPPPS-NH2), in that order: 0.302 µM and more than 5000 nM.
For `CC[C@H](C)[C@H](NC(=O)[C@H](CO)NC(=O)[C@H](Cc1ccc(O)cc1)NC(=O)[C@H](CC(=O)O)NC(=O)[C@H](CO)NC(=O)[C@@H](NC(=O)[C@](C)(Cc1ccccc1)NC(=O)[C@@H](NC(=O)CNC(=O)[C@H](CCC(=O)O)NC(=O)C(C)(C)NC(=O)[C@@H](N)Cc1ccc(O)cc1)[C@@H](C)O)[C@@H](C)CC)C(=O)N[C@@H](C)C(=O)N[C@@H](CC(C)C)C(=O)N[C@@H](CC(=O)O)C(=O)N[C@@H](CCCCN)C(=O)N[C@@H](CCCCNC(=O)COCCOCCNC(=O)COCCOCCNC(=O)CC[C@H](NC(=O)CCCCCCCCCCCCCCCCCCC(=O)O)C(=O)O)C(=O)N[C@@H](Cc1c[nH]cn1)C(=O)N[C@@H](CCC(N)=O)C(=O)NC(C)(C)C(=O)N[C@@H](CC(=O)O)C(=O)N[C@@H](Cc1ccccc1)C(=O)N[C@H](C(=O)N[C@@H](CCC(=O)O)C(=O)N[C@@H](Cc1ccncc1)C(=O)N[C@@H](CC(C)C)C(=O)N[C@@H](CC(C)C)C(=O)N[C@@H](CCC(=O)O)C(=O)N[C@H](C(=O)NCC(=O)N1CCC[C@H]1C(=O)N[C@@H](CO)C(=O)N[C@@H](CO)C(=O)NCC(=O)N[C@@H](C)C(=O)N1CCC[C@H]1C(=O)N1CCC[C@H]1C(=O)N1CCC[C@H]1C(=O)N[C@@H](CO)C(N)=O)[C@@H](C)O)C(C)C` [Example 41] (H-Y[Aib]EGT[αMeF]ISDYSIALDKK([AEEA-AEEA-γGlu-C20 diacid])HQ[Aib]DFVE[4Pal]LLETGPSSGAPPPS-NH2), in that order: more than 0.906 µM and more than 5000 nM.
For `CC[C@H](C)[C@H](NC(=O)[C@H](CO)NC(=O)[C@H](Cc1ccc(O)cc1)NC(=O)[C@H](CC(=O)O)NC(=O)[C@H](CO)NC(=O)[C@@H](NC(=O)[C@](C)(Cc1ccccc1)NC(=O)[C@@H](NC(=O)CNC(=O)[C@H](CCC(=O)O)NC(=O)C(C)(C)NC(=O)[C@@H](N)Cc1ccc(O)cc1)[C@@H](C)O)[C@@H](C)CC)C(=O)N[C@@H](C)C(=O)N[C@@H](CC(C)C)C(=O)N[C@@H](CC(=O)O)C(=O)N[C@@H](CCCCN)C(=O)N[C@@H](CCCCNC(=O)COCCOCCNC(=O)COCCOCCNC(=O)CC[C@H](NC(=O)CCCCCCCCCCCCCCCCCCC(=O)O)C(=O)O)C(=O)N[C@@H](Cc1c[nH]cn1)C(=O)N[C@@H](CCC(N)=O)C(=O)NC(C)(C)C(=O)N[C@@H](CC(=O)O)C(=O)N[C@@H](Cc1ccccc1)C(=O)N[C@H](C(=O)N[C@@H](CCC(=O)O)C(=O)N[C@@H](Cc1ccncc1)C(=O)N[C@@H](CC(C)C)C(=O)N[C@@H](CC(C)C)C(=O)N[C@@H](CCC(=O)O)C(=O)N[C@@H](CCC(N)=O)C(=O)NCC(=O)N1CCC[C@H]1C(=O)N[C@@H](CO)C(=O)N[C@@H](CO)C(=O)NCC(=O)N[C@@H](C)C(=O)N1CCC[C@H]1C(=O)N1CCC[C@H]1C(=O)N1CCC[C@H]1C(=O)N[C@@H](CO)C(N)=O)C(C)C` [Example 42] (H-Y[Aib]EGT[αMeF]ISDYSIALDKK([AEEA-AEEA-γGlu-C20 diacid])HQ[Aib]DFVE[4Pal]LLEQGPSSGAPPPS-NH2), in that order: 0.563 µM and more than 5000 nM.
Take `CC[C@H](C)[C@H](NC(=O)[C@H](CO)NC(=O)[C@H](Cc1ccc(O)cc1)NC(=O)[C@H](CC(=O)O)NC(=O)[C@H](CO)NC(=O)[C@@H](NC(=O)[C@](C)(Cc1ccccc1)NC(=O)[C@@H](NC(=O)CNC(=O)[C@H](CCC(=O)O)NC(=O)C(C)(C)NC(=O)[C@@H](N)Cc1ccc(O)cc1)[C@@H](C)O)[C@@H](C)CC)C(=O)N[C@@H](C)C(=O)N[C@@H](CC(C)C)C(=O)N[C@@H](CC(=O)O)C(=O)N[C@@H](CCCCN)C(=O)N[C@@H](CCCCNC(=O)COCCOCCNC(=O)COCCOCCNC(=O)CC[C@H](NC(=O)CCCCCCCCCCCCCCCCCCC(=O)O)C(=O)O)C(=O)N[C@@H](Cc1c[nH]cn1)C(=O)N[C@@H](CCC(N)=O)C(=O)NC(C)(C)C(=O)N[C@@H](CC(=O)O)C(=O)N[C@@H](Cc1ccccc1)C(=O)N[C@H](C(=O)N[C@@H](CCC(=O)O)C(=O)N[C@@H](Cc1ccncc1)C(=O)N[C@@H](CC(C)C)C(=O)N[C@@H](CC(C)C)C(=O)N[C@@H](CCC(=O)O)C(=O)N[C@@H](C)C(=O)NCC(=O)N1CCC[C@H]1C(=O)N[C@@H](CO)C(=O)N[C@@H](CO)C(=O)NCC(=O)N[C@@H](C)C(=O)N1CCC[C@H]1C(=O)N1CCC[C@H]1C(=O)N1CCC[C@H]1C(=O)N[C@@H](CO)C(N)=O)C(C)C` [Example 43] (H-Y[Aib]EGT[αMeF]ISDYSIALDKK([AEEA-AEEA-γGlu-C20 diacid])HQ[Aib]DFVE[4Pal]LLEAGPSSGAPPPS-NH2): at human GLP-1R, the Ki is 0.605 µM. In experiment [1], the EC50 was more than 5000 nM.

As usually defined, the Ki is a dissociation constant, usually derived from enzyme kinetics or from competition with a known ligand. Broadly, the EC50 is the midpoint of the concentration-response curve.
